Data: the supplement of paper PMC11208160

Assay: recombinant barcode read abundance after kanamycin selection (control-corrected) (log10(CPM+1)); higher = more efficient recombination; sequences stand for … in AGTGCAGAGAAAATCGGCCAGTTTTCTCTGCCTGCAGTCCGCATGCCGT…AGATTTATGCAGCGGACTGCCTTTCTCCCAAAGTGATAAACCGGACAGTATCATGGACCGGTTTTCCCGGTAATCCGTATTTGCAAGGTTGGTTTCACT; site = the 11-nt target
Method in brief: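 This pooled E. coli screen matched targets with IS621 bridge RNA target-binding loops. Plating was done in duplicate on chloramphenicol/ampicillin LB agar as a control and on chloramphenicol/ampicillin/kanamycin plus 0.1 mM IPTG. Recombination efficiency reflects barcode counts at recombinant junctions as counts per million, averaged and control-corrected. The figures are log10(CPM+1).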
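Further: IS621 recombinase and bridge RNA in Escherichia coli cells.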

Sequence	recombinant barcode read abundance (log10)
CGTCAGACTTGGGTTCTAACCTGTTGCCT (site CGTGAGACTAG)	0.212
CGTCAGACTTGGGTTCTAACCTGTTGCCT (site CGTTAGACTAG)	0
CGTCTACCTTGGGTTCTAACCTGTTGCTT (site AGTCTACCTAA)	0.297
CGTCTACCTTGGGTTCTAACCTGTTGCTT (site CGTCTACCTAA)	0.242
CGTCTCCCTTGGGTTCTAACCTGTTGCTT (site CGTATCCCTCA)	0.108
CGTCTCCCTTGGGTTCTAACCTGTTGCTT (site CGTCTCCCTAA)	0.162
CGTGAACCTTGGGTTCTAACCTGTTGCGT (site CGTAAACCTAC)	2.19
CGTGAACCTTGGGTTCTAACCTGTTGCGT (site CGTCAACCTAC)	0.34
CGTGAACCTTGGGTTCTAACCTGTTGCGT (site CGTGAACCTAC)	2.79
CGTGAACCTTGGGTTCTAACCTGTTGCGT (site CGTTAACCTAC)	0.751
CGTGCGGCTTGGGTTCTAACCTGTTGCCT (site AGTGCGGCTAG)	0.0463
CGTGCGGCTTGGGTTCTAACCTGTTGCCT (site CGTGCGGCTAG)	0.486
CGTGCGGCTTGGGTTCTAACCTGTTGCCT (site GGTGCGGCTAG)	0.946
CGTGCGGCTTGGGTTCTAACCTGTTGCCT (site TGTGCGGCTAG)	0.0337
CGTGCGTCTTGGGTTCTAACCTGTTGCCT (site AGTGCGTCTAG)	0.208
CGTGCGTCTTGGGTTCTAACCTGTTGCCT (site CGTGCGTCTAG)	0.918
CGTGCGTCTTGGGTTCTAACCTGTTGCCT (site GGTGCGTCTAG)	0.38
CGTGCGTCTTGGGTTCTAACCTGTTGCCT (site TGTGCGTCTAG)	0.0337
CGTGGGCCTTGGGTTCTAACCTGTTGCCT (site CATGGGCCTAG)	0.295
CGTGGGCCTTGGGTTCTAACCTGTTGCCT (site CCTGGGCCTAG)	0.208
CGTGGGCCTTGGGTTCTAACCTGTTGCCT (site CGTGGGCCTAG)	0.0583
CGTGGGCCTTGGGTTCTAACCTGTTGCCT (site CTTGGGCCTAG)	0.0694

Sequence	recombinant barcode read abundance (log10)
CGTGGTCCTTGGGTTCTAACCTGTTGCCT (site CGTGGTCCTAA)	0.0142
CGTGGTCCTTGGGTTCTAACCTGTTGCCT (site CGTGGTCCTAC)	0.413
CGTGGTCCTTGGGTTCTAACCTGTTGCCT (site CGTGGTCCTAG)	1.26
CGTGGTCCTTGGGTTCTAACCTGTTGCCT (site CGTGGTCCTAT)	0.657
CGTTAACCTTGGGTTCTAACCTGTTGCGT (site CGTAAACCTAC)	0.423
CGTTAACCTTGGGTTCTAACCTGTTGCGT (site CGTCAACCTAC)	1.48
CGTTAACCTTGGGTTCTAACCTGTTGCGT (site CGTGAACCTAC)	0.177
CGTTAACCTTGGGTTCTAACCTGTTGCGT (site CGTTAACCTAC)	1.37
CGTTAGACTTGGGTTCTAACCTGTTGCCT (site CGTAAGACTAG)	0.113
CGTTAGACTTGGGTTCTAACCTGTTGCCT (site CGTCAGACTAG)	0.267
CGTTAGACTTGGGTTCTAACCTGTTGCCT (site CGTGAGACTAG)	0.147
CGTTAGACTTGGGTTCTAACCTGTTGCCT (site CGTTAGACTAG)	0.469
CGTTCAACTTGGGTTCTAACCTGTTGCCT (site CGTTCAACTAG)	0.0537
CGTTCAACTTGGGTTCTAACCTGTTGCCT (site CGTTCCACTAG)	0.0618
CGTTCAACTTGGGTTCTAACCTGTTGCCT (site CGTTCGACTAG)	0.153
CGTTCAACTTGGGTTCTAACCTGTTGCCT (site CGTTCTACTAG)	0.0864
CGTTCATCTTGGGTTCTAACCTGTTGCCT (site CGATCATCTAG)	0
CGTTCATCTTGGGTTCTAACCTGTTGCCT (site CGCTCATCTAG)	0.0301
CGTTCATCTTGGGTTCTAACCTGTTGCCT (site CGGTCATCTAG)	0.0446
CGTTCATCTTGGGTTCTAACCTGTTGCCT (site CGTTCATCTAG)	0.0763
CGTTCTACTTGGGTTCTAACCTGTTGCCT (site CGTTCAACTAG)	0.0719
CGTTCTACTTGGGTTCTAACCTGTTGCCT (site CGTTCCACTAG)	0.286

Sequence	recombinant barcode read abundance (log10)
CGTTCTACTTGGGTTCTAACCTGTTGCCT (site CGTTCGACTAG)	0.0414
CGTTCTACTTGGGTTCTAACCTGTTGCCT (site CGTTCTACTAG)	0.00743
CGTTGATCTTGGGTTCTAACCTGTTGCCT (site CGTTGATCTAG)	0.234
CGTTGATCTTGGGTTCTAACCTGTTGCCT (site CGTTGTTCTAG)	0.0674
CGTTGTCCTTGGGTTCTAACCTGTTGCAA (site CCTTGTCCTCT)	0.00991
CGTTGTCCTTGGGTTCTAACCTGTTGCAA (site CGTTGTCCTTT)	0.347
CGTTGTTCTTGGGTTCTAACCTGTTGCCT (site CGTTGATCTAG)	0.0873
CGTTGTTCTTGGGTTCTAACCTGTTGCCT (site CGTTGTTCTAG)	0.163
CTAAAAGCTTGGGTTCTAACCTGTTGCCA (site CTAAAAGCTTG)	0.493
CTAAAAGCTTGGGTTCTAACCTGTTGCCA (site TACTCCTCTCC)	0.0219
CTAAAGTCTTGGGTTCTAACCTGTTGCAC (site CTAAAGTCTGG)	0.0578
CTAAAGTCTTGGGTTCTAACCTGTTGCAC (site CTAAAGTCTGT)	1.51
CTAAAGTCTTGGGTTCTAACCTGTTGCCC (site CTAAAGTCTGG)	0.4
CTAAAGTCTTGGGTTCTAACCTGTTGCCC (site CTAAAGTCTGT)	0.136
CTAAATACTTGGGTTCTAACCTGTTGCTT (site CTAAATACTAA)	0.383
CTAAATACTTGGGTTCTAACCTGTTGCTT (site CTATATACTAA)	0.107
CTAACCTCTTGGGTTCTAACCTGTTGCAT (site CTAACCTCTAT)	2.1
CTAACCTCTTGGGTTCTAACCTGTTGCAT (site CTACCCTCTAT)	0.0596
CTAACCTCTTGGGTTCTAACCTGTTGCAT (site CTAGCCTCTAT)	0.151
CTAACCTCTTGGGTTCTAACCTGTTGCAT (site CTATCCTCTAT)	0.0287
CTAACTACTTGGGTTCTAACCTGTTGCTT (site AGTTGGCCTCT)	0.41
CTAACTACTTGGGTTCTAACCTGTTGCTT (site CTAACTACTAA)	0.252

Sequence	recombinant barcode read abundance (log10)
CTAACTCCTTGGGTTCTAACCTGTTGCCT (site ATACCTCCTAG)	0.242
CTAACTCCTTGGGTTCTAACCTGTTGCCT (site CTAACTCCTAG)	0.401
CTAACTCCTTGGGTTCTAACCTGTTGCTG (site CTAACTCCTCA)	0.12
CTAACTCCTTGGGTTCTAACCTGTTGCTG (site CTAACTGCTCC)	0.524
CTAACTGCTTGGGTTCTAACCTGTTGCGG (site CTAACTCCTCA)	0.0417
CTAACTGCTTGGGTTCTAACCTGTTGCGG (site CTAACTGCTCC)	0.633
CTAACTGCTTGGGTTCTAACCTGTTGCGT (site CTAACTGCTAC)	0.96
CTAACTGCTTGGGTTCTAACCTGTTGCGT (site TCCCAAACTGT)	0.177
CTAAGAACTTGGGTTCTAACCTGTTGCCT (site CTAAGAACTAA)	0.0228
CTAAGAACTTGGGTTCTAACCTGTTGCCT (site CTAAGAACTAC)	1.05
CTAAGAACTTGGGTTCTAACCTGTTGCCT (site CTAAGAACTAG)	0.604
CTAAGAACTTGGGTTCTAACCTGTTGCCT (site CTAAGAACTAT)	0
CTAAGATCTTGGGTTCTAACCTGTTGCCT (site CAAAGATCTAG)	0.0172
CTAAGATCTTGGGTTCTAACCTGTTGCCT (site CCAAGATCTAG)	0.119
CTAAGATCTTGGGTTCTAACCTGTTGCCT (site CGAAGATCTAG)	0.0614
CTAAGATCTTGGGTTCTAACCTGTTGCCT (site CTAAGATCTAG)	0.169
CTAAGCTCTTGGGTTCTAACCTGTTGCTA (site CTAAGCTCTAA)	0.0436
CTAAGCTCTTGGGTTCTAACCTGTTGCTA (site CTAAGCTCTCA)	0.0617
CTAAGCTCTTGGGTTCTAACCTGTTGCTA (site CTAAGCTCTGA)	0.172
CTAAGCTCTTGGGTTCTAACCTGTTGCTA (site CTAAGCTCTTA)	0.939
